Reference: US5684026A, “Aminocyclopentane derivative” (priority 1994, dated 1997)

Assays:
B16 melanoma cells = assay: Cytotoxicity, survival ratio by Trypan blue staining; type: cell-based; details: 5-100 μM, 24 hours
Description: After 24 hours, the medium was replaced with Dulbecco-modified Eagle medium containing each sample. The incubation was continued under the same conditions for additional 24 hours. Then the cells were harvested by adding EDTA, washed with PBS and stained with 0.3% Trypan blue solution to thereby determine the survival ratio of the cells.

[1] = system: α-Galactosidase (E. Coli, EC. 3.2.1.22); assay: α-Galactosidase enzyme inhibition assay (p-nitrophenyl α-D-galactopyranoside); type: biochemical; details: pH 6.5, room temperature, 15 minutes
Description: (§1) By using a 96-well microplate, the absorbance (at 405 nm) of liberated p- or o-nitrophenol was measured with a microplate reader (MPR-4Ai, manufactured by Tosoh Corporation).
(§2) The enzymes employed herein [α-glucosidase (Baker's yeast), β-glucosidase (Almonds), α-galactosidase (E. coli), β-galactosidase (E. coli) and β-galactosidase (Bovine Liver)] were all purchased from Sigma.
(§3) The substrates (p- or o-nitrophenylglycoside) of these enzymes were all purchased from Sigma.
3) α-Galactosidase (E. Coli, EC. 3.2.1.22) [described in H. Suzuki, S-C. Li and Y-T. Li, J. Biol. Chem., 245, 781-786 (1970)]
Into each well were introduced an aqueous solution of a sample (1 μl), a buffer (74 μl), a 9.9 mM solution of p-nitrophenyl α-D-galactopyranoside in a buffer (20 μl) and a (50 μg/ml) enzyme solution in the buffer (5 μl) to give a total volume of 100 μl. After incubating the resulting mixture at room temperature (20°-30° C.) for 15 minutes, the reaction was ceased by adding a 0.2M borate buffer solution (pH 9.8, prepared from NaOH and H3 BO3, 100 μl). Then the absorbance (A405) of p-nitrophenol liberated by this enzyme reaction was measured. To give the blank absorbance (Ablank), the sample (1 μl), the substrate (20 μl) and the buffer solution (79 μl) were incubated in the same manner and the 0.2M borate buffer solution (100 μl) was added followed by the measurement of the absorbance. To give the control absorbance ([…]), on the other hand, water (1 μl), the substrate (20 μl), the buffer solution (74 μl) and the enzyme solution (5 μl) were incubated in the same manner and the borate buffer solution (100 μl) was added followed by the measurement of the absorbance. A 0.1M phosphate buffer solution (pH 6.5, prepared from KH2 PO4 and K2 HPO4) was employed as the buffer for the enzyme reaction. The IC50 was determined in the same manner as employed in the case of α-glucosidase.

[2] = biological target: T1, β-Galactosidase (E. Coli, EC. 3.2.1.23) (Escherichia coli, UniProt P00722); assay: β-Galactosidase (E. coli) enzyme inhibition assay (o-nitrophenyl β-D-galactopyranoside); type: biochemical; details: pH 7.3, room temperature, 30 minutes; read-out: IC50 (M) β-Galactosidase (E. coli)
T1 construct: purchased Sigma; host or cells: E. coli
T1 sequence (P00722 2-1024 limits assumed): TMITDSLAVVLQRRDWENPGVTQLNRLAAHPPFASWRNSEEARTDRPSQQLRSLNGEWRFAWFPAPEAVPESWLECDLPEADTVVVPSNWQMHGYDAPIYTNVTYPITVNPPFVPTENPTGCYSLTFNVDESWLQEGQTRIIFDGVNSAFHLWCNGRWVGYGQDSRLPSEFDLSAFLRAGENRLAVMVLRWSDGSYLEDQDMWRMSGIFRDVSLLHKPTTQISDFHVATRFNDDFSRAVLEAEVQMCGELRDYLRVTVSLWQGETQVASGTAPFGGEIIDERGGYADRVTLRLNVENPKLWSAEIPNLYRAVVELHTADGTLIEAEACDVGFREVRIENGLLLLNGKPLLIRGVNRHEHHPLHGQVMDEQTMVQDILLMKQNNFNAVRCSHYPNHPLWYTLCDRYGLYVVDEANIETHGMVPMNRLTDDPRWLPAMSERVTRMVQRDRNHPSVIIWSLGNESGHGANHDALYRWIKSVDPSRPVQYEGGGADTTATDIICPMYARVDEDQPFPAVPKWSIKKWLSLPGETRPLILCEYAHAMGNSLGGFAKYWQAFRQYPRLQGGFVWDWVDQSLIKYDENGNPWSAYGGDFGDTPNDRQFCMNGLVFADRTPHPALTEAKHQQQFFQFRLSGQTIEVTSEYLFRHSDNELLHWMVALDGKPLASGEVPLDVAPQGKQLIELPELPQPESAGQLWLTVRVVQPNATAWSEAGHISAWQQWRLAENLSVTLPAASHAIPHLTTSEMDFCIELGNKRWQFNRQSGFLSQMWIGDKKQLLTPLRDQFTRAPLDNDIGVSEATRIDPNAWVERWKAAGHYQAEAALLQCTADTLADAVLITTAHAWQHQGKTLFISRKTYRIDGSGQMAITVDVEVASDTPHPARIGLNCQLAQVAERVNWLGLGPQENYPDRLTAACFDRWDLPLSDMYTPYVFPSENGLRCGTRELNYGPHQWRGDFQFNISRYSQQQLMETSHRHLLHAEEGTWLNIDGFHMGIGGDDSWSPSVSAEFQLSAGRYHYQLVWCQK
Description: as §1, §2, §3
4) β-Galactosidase (E. Coli, EC. 3.2.1.23) [described in G. R. Craven, E. Steers, Jr. and C. B. Anfinsen, J. Biol. Chem., 240, 2468-2477 (1965)]
Into each well were introduced an aqueous solution of a sample (2 μl), a buffer (153 μl), a 20 mM solution of o-nitrophenyl β-D-galactopyranoside in a buffer (25 μl), a 100 mM 2-mercaptoethanol (10 μl) and a (10 μg/ml) enzyme solution in the buffer (10 μl) to give a total volume of 200 μl. After incubating at room temperature (20°-30° C.) for 30 minutes, the absorbance (A405) of o-nitrophenol liberated by this enzyme reaction was measured. To give the blank absorbance (Ablank), the sample (2 μl), the substrate (25 μl), the buffer solution (163 μl) and 2-mercaptoethanol (10 μl) were incubated in the same manner followed by the measurement of the absorbance. To give the control absorbance (Acontrol), on the other hand, water (2 μl), the substrate (25 μl), the buffer solution (153 μl), 2-mercaptoethanol (10 μl) and the enzyme solution (10 μl) were incubated in the same manner followed by the measurement of the absorbance. A 50 mM phosphate buffer solution (pH 7.3, prepared from KH2 PO4 and K2 HPO4, containing 1.3 mM of MgCl2) was employed as the buffer for the enzyme reaction. The IC50 was determined in the same manner as employed in the case of α-glucosidase.

[3] = biological target: β-Glucosidase (Almonds, EC 3.2.1.21); assay: β-Glucosidase enzyme inhibition assay (p-nitrophenyl β-D-glucopyranoside); type: biochemical
Description: as §1
Incubation was carried out at 37° C. by using a natural incubator (Compact NIB-10, manufactured by Iwaki Glass Co., Ltd.).
as §2, §3
2) β-Glucosidase (Almonds, EC 3.2.1.21) [described in A. Kobayashi, Agr. Biol. Chem., 26, 203-207 (1962)]
Into each well were introduced an aqueous solution of a sample (1 μl), a 0.33 mM solution of p-nitrophenyl β-D-glucopyranoside in a buffer (98 μl) and a (0.4 mg/ml) enzyme solution in the buffer (1 μl) to give a total volume of 100 μl. After incubating at 37° C. for 45 minutes, the reaction was ceased by adding a 1M aqueous solution of sodium carbonate (100 μl). Then the absorbance (A405) of p-nitrophenol liberated by this enzyme reaction was measured. To give the blank absorbance (Ablank), the sample (1 μl) and the substrate (99 μl) were incubated in the same manner and an aqueous solution of sodium carbonate (100 μl) was added followed by the measurement of the absorbance. […] As the buffer, a 0.1M acetate buffer solution (pH 5.0, prepared from NaOAc and AcOH) was employed. The IC50 was determined in the same manner as employed in the case of α-glucosidase.

OC[C@@]12OC(Nc3ccccc3)=N[C@@H]1[C@H](O)[C@@H](O)[C@@H]2O [Compound 1-2L, (1S,5R,6S,7R,8S)-1-hydroxymethyl-3-phenylamino-2-oxa-4-azabicyclo[3.3.0]oct-3-ene-6,7,8-triol]
cytotoxicity (in words) (B16 melanoma cells): no cytotoxicity | IC50 [1]: > 300 µM | IC50 [2]: > 0.0003 M | IC50 ([3]; pH 5.0, 37° C., 45 minutes): > 300 µM | inhibitory activity against β-glucosidase (in words) ([3]; summary of Table 1): weak inhibitory activities
